Reference: the supplement of paper PMC10307832

Experiments:
Assay in all cases: relative viability (nuclei count vs DMSO), 5 days (fraction); higher = more cells survive
SW 900 = tested on: SW 900
Outline: (§1)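 Lung cancer cell lines in 1536-well plates got either a single drug or a fixed anchor-drug dose together with five library-drug doses (not always all listed) in √10 steps, by pin tool, on the day after seeding. Nuclei were counted after 5 days, and relative viability is the treated-to-vehicle ratio of nuclei counts. Values are medians of duplicate plates.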

NCI-H1975 = tested on: NCI-H1975
Outline: as §1

SK-LU-1 = tested on: SK-LU-1
Outline: as §1

EPLC-272H = tested on: EPLC-272H
Outline: as §1

EMC-BAC-2 = tested on: EMC-BAC-2
Outline: as §1

EKVX = tested on: EKVX
Outline: as §1

NCI-H1666 = tested on: NCI-H1666
Outline: as §1

ChaGo-K-1 = tested on: ChaGo-K-1
Outline: as §1

NCI-H2405 = tested on: NCI-H2405
Outline: as §1

NCI-H2342 = tested on: NCI-H2342
Outline: as §1

HCC-827 = tested on: HCC-827
Outline: as §1

LU99A = tested on: LU99A
Outline: as §1

NCI-H23 = tested on: NCI-H23
Outline: as §1

NCI-H2126 = tested on: NCI-H2126
Outline: as §1

LK-2 = tested on: LK-2
Outline: as §1

PC-14 = tested on: PC-14
Outline: as §1

NCI-H1563 = tested on: NCI-H1563
Outline: as §1

RERF-LC-KJ = tested on: RERF-LC-KJ
Outline: as §1

LCLC-103H = tested on: LCLC-103H
Outline: as §1

NCI-H322M = tested on: NCI-H322M
Outline: as §1

SW 1573 = tested on: SW 1573
Outline: as §1

## Nc1ccn([C@@H]2O[C@H](CO)[C@@H](O)[C@@H]2O)c(=O)n1 [Cytarabine] + CCNC(=O)c1noc(-c2cc(C(C)C)c(O)cc2O)c1-c1ccc(CN2CCOCC2)cc1 [Luminespib] (partner 0.01 µM)
SW 900; first compound 0.005 µM
  relative viability: 0.16
SW 900; first compound 0.01581 µM
  relative viability: 0.184
SW 900; first compound 0.05 µM
  relative viability: 0.186
SW 900; first compound 0.1581 µM
  relative viability: 0.142
SW 900; first compound 0.5 µM
  relative viability: 0.137
NCI-H1975; first compound 0.005 µM
  relative viability: 0.536
NCI-H1975; first compound 0.01581 µM
  relative viability: 0.316
NCI-H1975; first compound 0.05 µM
  relative viability: 0.193
NCI-H1975; first compound 0.1581 µM
  relative viability: 0.209
NCI-H1975; first compound 0.5 µM
  relative viability: 0.171
SK-LU-1; first compound 0.005 µM
  relative viability: 0.178
SK-LU-1; first compound 0.01581 µM
  relative viability: 0.183
SK-LU-1; first compound 0.05 µM
  relative viability: 0.214
SK-LU-1; first compound 0.1581 µM
  relative viability: 0.185
SK-LU-1; first compound 0.5 µM
  relative viability: 0.185
EPLC-272H; first compound 0.005 µM
  relative viability: 0.433
EPLC-272H; first compound 0.01581 µM
  relative viability: 0.241
EPLC-272H; first compound 0.05 µM
  relative viability: 0.194
EPLC-272H; first compound 0.1581 µM
  relative viability: 0.228
EPLC-272H; first compound 0.5 µM
  relative viability: 0.243
EMC-BAC-2; first compound 0.005 µM
  relative viability: 0.885
EMC-BAC-2; first compound 0.01581 µM
  relative viability: 0.742
EMC-BAC-2; first compound 0.05 µM
  relative viability: 0.346
EMC-BAC-2; first compound 0.1581 µM
  relative viability: 0.259
EMC-BAC-2; first compound 0.5 µM
  relative viability: 0.244
EKVX; first compound 0.005 µM
  relative viability: 0.918
EKVX; first compound 0.01581 µM
  relative viability: 0.743
EKVX; first compound 0.05 µM
  relative viability: 0.736
EKVX; first compound 0.1581 µM
  relative viability: 0.287
EKVX; first compound 0.5 µM
  relative viability: 0.186
NCI-H1666; first compound 0.005 µM
  relative viability: 1.01
NCI-H1666; first compound 0.01581 µM
  relative viability: 0.94
NCI-H1666; first compound 0.05 µM
  relative viability: 0.675
NCI-H1666; first compound 0.1581 µM
  relative viability: 0.539
NCI-H1666; first compound 0.5 µM
  relative viability: 0.579
ChaGo-K-1; first compound 0.005 µM
  relative viability: 0.649
ChaGo-K-1; first compound 0.01581 µM
  relative viability: 0.43
ChaGo-K-1; first compound 0.05 µM
  relative viability: 0.263
ChaGo-K-1; first compound 0.1581 µM
  relative viability: 0.206
ChaGo-K-1; first compound 0.5 µM
  relative viability: 0.188
NCI-H2405; first compound 0.005 µM
  relative viability: 0.64
NCI-H2405; first compound 0.01581 µM
  relative viability: 0.547
NCI-H2405; first compound 0.05 µM
  relative viability: 0.553
NCI-H2405; first compound 0.1581 µM
  relative viability: 0.369
NCI-H2405; first compound 0.5 µM
  relative viability: 0.318
NCI-H2342; first compound 0.005 µM
  relative viability: 0.597
NCI-H2342; first compound 0.01581 µM
  relative viability: 0.723
NCI-H2342; first compound 0.05 µM
  relative viability: 0.642
NCI-H2342; first compound 0.1581 µM
  relative viability: 0.462
NCI-H2342; first compound 0.5 µM
  relative viability: 0.444
HCC-827; first compound 0.005 µM
  relative viability: 0.591
HCC-827; first compound 0.01581 µM
  relative viability: 0.396
HCC-827; first compound 0.05 µM
  relative viability: 0.336
HCC-827; first compound 0.1581 µM
  relative viability: 0.154
HCC-827; first compound 0.5 µM
  relative viability: 0.144
LU99A; first compound 0.005 µM
  relative viability: 0.209
LU99A; first compound 0.01581 µM
  relative viability: 0.199
LU99A; first compound 0.05 µM
  relative viability: 0.217
LU99A; first compound 0.1581 µM
  relative viability: 0.167
LU99A; first compound 0.5 µM
  relative viability: 0.201
NCI-H23; first compound 0.005 µM
  relative viability: 0.179
NCI-H23; first compound 0.01581 µM
  relative viability: 0.192
NCI-H23; first compound 0.05 µM
  relative viability: 0.197
NCI-H23; first compound 0.1581 µM
  relative viability: 0.199
NCI-H23; first compound 0.5 µM
  relative viability: 0.188
NCI-H2126; first compound 0.005 µM
  relative viability: 0.789
NCI-H2126; first compound 0.01581 µM
  relative viability: 0.86
NCI-H2126; first compound 0.05 µM
  relative viability: 0.671
NCI-H2126; first compound 0.1581 µM
  relative viability: 0.53
NCI-H2126; first compound 0.5 µM
  relative viability: 0.427
LK-2; first compound 0.005 µM
  relative viability: 0.193
LK-2; first compound 0.01581 µM
  relative viability: 0.187
LK-2; first compound 0.05 µM
  relative viability: 0.197
LK-2; first compound 0.1581 µM
  relative viability: 0.155
LK-2; first compound 0.5 µM
  relative viability: 0.176
PC-14; first compound 0.005 µM
  relative viability: 0.172
PC-14; first compound 0.01581 µM
  relative viability: 0.133
PC-14; first compound 0.05 µM
  relative viability: 0.131
PC-14; first compound 0.1581 µM
  relative viability: 0.131
PC-14; first compound 0.5 µM
  relative viability: 0.0979
NCI-H1563; first compound 0.005 µM
  relative viability: 0.628
NCI-H1563; first compound 0.01581 µM
  relative viability: 0.506
NCI-H1563; first compound 0.05 µM
  relative viability: 0.432
NCI-H1563; first compound 0.1581 µM
  relative viability: 0.407
NCI-H1563; first compound 0.5 µM
  relative viability: 0.455
RERF-LC-KJ; first compound 0.005 µM
  relative viability: 0.968
RERF-LC-KJ; first compound 0.01581 µM
  relative viability: 1.04
RERF-LC-KJ; first compound 0.05 µM
  relative viability: 0.977
RERF-LC-KJ; first compound 0.1581 µM
  relative viability: 0.38
RERF-LC-KJ; first compound 0.5 µM
  relative viability: 0.416
LCLC-103H; first compound 0.005 µM
  relative viability: 0.96
LCLC-103H; first compound 0.01581 µM
  relative viability: 1.05
LCLC-103H; first compound 0.05 µM
  relative viability: 1.03
LCLC-103H; first compound 0.1581 µM
  relative viability: 0.909
LCLC-103H; first compound 0.5 µM
  relative viability: 0.947
NCI-H322M; first compound 0.005 µM
  relative viability: 0.812
NCI-H322M; first compound 0.01581 µM
  relative viability: 0.685
NCI-H322M; first compound 0.05 µM
  relative viability: 0.514
NCI-H322M; first compound 0.1581 µM
  relative viability: 0.387
NCI-H322M; first compound 0.5 µM
  relative viability: 0.351
SW 1573; first compound 0.005 µM
  relative viability: 0.375
SW 1573; first compound 0.01581 µM
  relative viability: 0.228
SW 1573; first compound 0.05 µM
  relative viability: 0.285
SW 1573; first compound 0.1581 µM
  relative viability: 0.164
SW 1573; first compound 0.5 µM
  relative viability: 0.0905
